Legend:
HT1080 cells = test: R3616 viral yield in HT1080 cells with MEK inhibitor PD98059 or DMSO; assay type: cell-based, human; conditions: R3616 1 PFU/cell
Description: (§1) Inhibitor studies—For experiments employing the known MEK inhibitor, PD98059, HT1080 cells were starved over night in serum-free medium and then exposed to 40 μM of PD98059 (EMD Biosciences, San Diego, Calif.), or DMSO (1:1000 dilution) 6 hours prior to, and during, infection. At 12 hours post-infection, whole cell lysates were created as described above for immunoblotting.
Finally, to determine if MEK inhibition affects viral replication, DMSO or PD98059 (40 μM) was added to replicate cultures of HT1080 cells 6 hours prior to, and during, infection with R3616 (1 PFU/cell). The cells were harvested at 36 hours post-infection and viral yields were measured by plaque assays on Vero cell monolayers.

[1] = test system: HT1080 cells infected with R3616; test: Immunoblot of viral proteins and phosphorylated PKR in R3616-infected HT1080 cells treated with PD98059; assay type: cell-based, human
Description: Immunoblotting—Experiments to analyze the accumulation of viral proteins and phosphorylation of ERK, PKR and eIF-2α were performed on whole-cell lysates harvested on ice at either 12 or 14 hours post-infection with lysis buffer, sonicated for 10 seconds, and clarified by centrifugation. Total protein from the supernatant was quantified by the Bradford method and 20 μg of equilibrated protein was subjected to electrophoresis in 12% or 7.5% (vol/vol) denaturing polyacrylamide gels, transferred to PVDF membranes (Millipore Corporation), blocked, and reacted with primary antibody followed by appropriate secondary antibody.
as §1
To determine if MEK mediates the observed mutant Ras-dependent suppression of PKR activation and resultant accumulation of viral proteins in HT1080 cells infected with mutant virus R3616, the relative expressions of representative α (ICP27), β (UL42) and γ2(glycoprotein C) viral proteins in cells treated with a specific chemical inhibitor of MEK-1 (PD98059) were compared. Replicate cultures of HT1080 cells were serum-starved overnight prior to exposure to equal volumes of DMSO or PD98059 (40 μM) for 6 hours prior to infection with R3616 mutant virus (10 PFU/cell). DMSO or drug treatment was then continued until the cells were harvested at 12 hours post-infection. The cells were then lysed and the lysates were subjected to electrophoresis in denaturing polyacrylamide gels, followed by transferring to PVDF membranes and reacting with antibody to ICP27, UL42, or gC. […] To test whether the decrease in the accumulation of gC correlated with activation of PKR, the electrophoretically separated lysates were also probed with antibody to the auto-phosphorylated form of PKR (P-Thr446).

[2] = PD98059 40 μM, R3616 10 PFU/cell, 12 hours post-infection

In the case of `COc1cccc(-c2cc(=O)c3ccccc3o2)c1N` [PD98059], the “yield of R3616 mutant virus in the presence of PD98059” value (HT1080 cells; PD98059 40 μM 6 hours prior to and during infection, 36 hours post-infection) was 1.67×10^5 PFU/ml, the “fold lower yield of R3616 with PD98059 than with DMSO” value (HT1080 cells; PD98059 40 μM, 36 hours) was “approximately 15 fold” and the “amount of activated PKR (P-Thr446)” value ([1]; PD98059 40 μM prior to and during infection with R3616) was “increased the amount of activated PKR”. For the same compound, the “accumulation of ICP27 and UL42 proteins” value [1, 2] was “slight effect” and the “amounts of gC that accumulated” value [1, 2] was “very dramatic decrease”.

Source: US20110274661A1, “Attentuated Herpesvirus Encoding a Mek Pathway Polypeptide” (The University of Chicago, priority 2008, published 2011)
